≈ marks a conversion by molar mass, not a printed value. Calls of active or inactive are those of the source. The calls are words filed in the database; no cut-off is given here.

One experiment concerns Nilaparvata lugens. Nature of the experiment: In vivo insecticidal activity against fifth instar larval stage of Nilaparvata lugens (brown planthopper) in […] rice seedlings assessed as mortality at 1 g/l treated for 5 secs before larval infestation measured after 72 hr. Type of experiment: functional, organism-based.
A further experiment has as its system Botrytis cinerea. Nature of the experiment: In vivo fungicidal activity against Botryotinia fuckeliana infected in cucumber plants assessed as inhibition of disease symptoms at 200 ug/ml treated one day prior to fungal spore inoculation measured after one week. Type of experiment: functional, organism-based.
Experiment [1] concerns Podosphaera fuliginea. The experiment is described as follows: In vivo fungicidal activity against Podosphaera fuliginea infected cucumber plants assessed as inhibition of disease symptoms at 200 ug/ml treated one day prior to fungal spore inoculation measured after one week. It counts as functional.
Another experiment relates to Rhizoctonia solani. The experiment is described as follows: In vivo fungicidal activity against Rhizoctonia solani infected in cucumber plants assessed as inhibition of disease symptoms at 200 ug/ml treated one day prior to fungal spore inoculation measured after one week. Type of experiment: functional, organism-based.
The next experiment deals with Aphis medicaginis. The experiment is described as follows: In vivo insecticidal activity against Aphis medicaginis assessed as mortality at 1 g/l after 72 hr. It counts as functional, organism-based.
The subject of a further experiment is Tetranychus cinnabarinus. The experiment is described as follows: In vivo insecticidal activity against Tetranychus cinnabarinus (carmine spider mite) assessed as mortality at 500 ug/ml after 72 hr. It counts as functional.
Experiment [2] has as its system Pseudoperonospora cubensis. The experiment is described as follows: In vivo fungicidal activity against Pseudoperonospora cubensis infected in cucumber plants assessed as inhibition of disease symptoms at 200 ug/ml treated one day prior to fungal spore inoculation measured after one week. It counts as functional.
Experiment [3] relates to Mythimna separata. The experiment is described as follows: In vivo insecticidal activity against Mythimna separata (Oriental armyworm) assessed as mortality at 500 ug/ml after 72 hr. Type of experiment: functional.
Experiment [4] relates to Mythimna separata. The experiment is described as follows: In vivo insecticidal activity against Mythimna separata (Oriental armyworm) assessed as mortality after 72 hr. Type of experiment: functional.
For experiment [5], the system named is Pseudoperonospora cubensis. The experiment is described as follows: In vivo fungicidal activity against Pseudoperonospora cubensis infected in cucumber plants assessed as inhibition of disease symptoms treated one day prior to fungal spore inoculation measured after one week. It counts as functional, organism-based.
The test system of experiment [6] is Podosphaera fuliginea. Nature of the experiment: In vivo fungicidal activity against Podosphaera fuliginea infected cucumber plants assessed as inhibition of disease symptoms treated one day prior to fungal spore inoculation measured after one week. It counts as functional, organism-based.

For orientation: mortality means the percentage killed. One may read the inhibition in vivo as the percentage by which the read-out fell short of the control. Consider `CO/C=C(/C(=O)OC)c1ccccc1COc1cccc(C2=NN(C(C)=O)C(c3ccc(Cl)cc3)C2)c1` (configuration not stated), for which the mortality entry in the experiment with Nilaparvata lugens and with Aphis medicaginis was “inactive” in each case. Also, the inhibition result in the experiment with Botrytis cinerea and in the experiment on Rhizoctonia solani was “inactive” in each case. The inhibition in vivo at 200 µg/mL was < 60% in the experiment on Podosphaera fuliginea [1] and ≥ 60% in [2]. Moreover, the mortality at 500 µg/mL in the experiment on Tetranychus cinnabarinus is < 60%; in the experiment on Mythimna separata [3], 100%.
The LC50 is the concentration that kills 50% of the test population. For the compound `CCOCn1c(-c2ccc(Cl)cc2)c(C#N)c(Br)c1C(F)(F)F` [CHLORFENAPYR], in the experiment on Mythimna separata [3], the mortality at 500 µg/mL stood at 100%. For the same compound, the LC50 with Mythimna separata [4] came out at 18.5 µg/mL (≈ 45.4 µM).
A word on the IC50: it is the point on the concentration scale where inhibition reaches its midpoint. As to `CO/N=C(/C(=O)OC)c1ccccc1COc1ccccc1C` [KRESOXIM-METHYL], the half-inhibitory concentration (IC50) in experiment [5] stood at 24.1 µg/mL (≈ 76.9 µM); in the experiment on Podosphaera fuliginea [6], 1.6 µg/mL (≈ 5.11 µM). Also, the results for the inhibition in vivo at 200 µg/mL (with Podosphaera fuliginea [1]; in experiment [2]) were 100% and ≥ 90%, respectively.
For the compound `CO/C=C(/C(=O)OC)c1ccccc1COc1cccc(C2=NN(C(C)=O)C(c3ccc(C)cc3)C2)c1` (configuration not stated), the inhibition entry in the experiment with Botrytis cinerea and in the experiment on Rhizoctonia solani was “inactive” in each case. Moreover, the results for the inhibition in vivo at 200 µg/mL (in the experiment with Podosphaera fuliginea [1]; in [2]) were < 60% and 100%, respectively. Further, the mortality at 500 µg/mL was < 60% in the experiment on Tetranychus cinnabarinus and ≥ 90% in the experiment with Mythimna separata [3].
Regarding `CCc1ccc(C2CC(c3ccccc3OCc3ccccc3/C(=C\OC)C(=O)OC)=NN2C(C)=O)cc1` (configuration not stated), the mortality result in the experiment with Nilaparvata lugens and in the experiment on Aphis medicaginis was “inactive” each time. Further, the inhibition result with Botrytis cinerea and in the experiment on Rhizoctonia solani was “inactive” throughout. Also, the inhibition in vivo at 200 µg/mL was < 60% in the experiment with Podosphaera fuliginea [1] and 100% in experiment [2]. Also, the mortality at 500 µg/mL was < 60% in the experiment on Tetranychus cinnabarinus and 100% with Mythimna separata [3].
For `CO/C=C(/C(=O)OC)c1ccccc1COc1ccccc1C1=NN(C(C)=O)C(c2ccc(C)c(C)c2)C1` (configuration not stated), the inhibition entry in the experiment with Botrytis cinerea and in the experiment on Rhizoctonia solani was “inactive” in each case. In addition, the inhibition in vivo at 200 µg/mL (in the experiment on Podosphaera fuliginea [1]; in experiment [2]) was < 60% throughout.
Regarding `CO/C=C(/C(=O)OC)c1ccccc1COc1cccc(C2=NN(C(C)=O)C(c3ccccc3OC)C2)c1` (configuration not stated), the inhibition entry in the experiment with Botrytis cinerea and with Rhizoctonia solani was “inactive” in each case. Besides, the inhibition in vivo at 200 µg/mL (in the experiment on Podosphaera fuliginea [1]; in [2]) was ≥ 80% throughout.
As to `CO/C=C(/C(=O)OC)c1ccccc1COc1cccc(C2=NN(C(C)=O)C(c3ccc4c(c3)OCO4)C2)c1` (configuration not stated), the IC50 was found to be 26.6 µg/mL (≈ 50.3 µM) in experiment [5] and 57.6 µg/mL (≈ 109 µM) in the experiment with Podosphaera fuliginea [6]. Besides, the mortality result in the experiment on Nilaparvata lugens and in the experiment with Aphis medicaginis was “inactive” throughout. Besides, the inhibition entry with Botrytis cinerea and in the experiment on Rhizoctonia solani was “inactive” throughout. Further, the inhibition in vivo at 200 µg/mL is ≥ 90% in the experiment on Podosphaera fuliginea [1] and 100% in experiment [2]. The values for the mortality at 500 µg/mL in the experiment on Tetranychus cinnabarinus and with Mythimna separata [3] were < 60% and 100%, respectively. Besides, the LC50 in the experiment with Mythimna separata [4] amounted to 26.6 µg/mL (≈ 50.3 µM).
As for `CO/C=C(/C(=O)OC)c1ccccc1COc1cccc(C2=NN(C(C)=O)C(c3cccc(F)c3)C2)c1` (configuration not stated), the inhibition result in the experiment with Botrytis cinerea and in the experiment on Rhizoctonia solani was “inactive” each time. In addition, the inhibition in vivo at 200 µg/mL (with Podosphaera fuliginea [1]; in experiment [2]) was < 60% each time.
Turning to `CCOc1ccc(C2CC(c3ccc(OCc4ccccc4/C(=C\OC)C(=O)OC)cc3)=NN2C(C)=O)cc1` (configuration not stated), the inhibition result in the experiment with Botrytis cinerea and with Rhizoctonia solani was “inactive” each time. Besides, the inhibition in vivo at 200 µg/mL (in the experiment on Podosphaera fuliginea [1]; in experiment [2]) was < 60% in each case.
`CO/C=C(/C(=O)OC)c1ccccc1COc1cccc(C2=NN(C(C)=O)C(c3ccc(C(C)(C)C)cc3)C2)c1` (configuration not stated): the mortality result with Nilaparvata lugens and in the experiment with Aphis medicaginis was “inactive” each time. In addition, the inhibition result in the experiment with Botrytis cinerea and in the experiment with Rhizoctonia solani was “inactive” each time. The inhibition in vivo at 200 µg/mL in the experiment on Podosphaera fuliginea [1] was < 60%; in [2] it was ≥ 80%. For the same compound, the mortality at 500 µg/mL was ≥ 90% in the experiment on Tetranychus cinnabarinus and 100% with Mythimna separata [3].
On to `CO/C=C(/C(=O)OC)c1ccccc1COc1ccc(C2=NN(C(C)=O)C(c3ccc(C)cc3)C2)cc1` (configuration not stated), for which the inhibition result with Botrytis cinerea and with Rhizoctonia solani was “inactive” each time. In addition, the inhibition in vivo at 200 µg/mL (with Podosphaera fuliginea [1]; in experiment [2]) was < 60% each time.
For `CO/C=C(/C(=O)OC)c1ccccc1COc1ccc(C2=NN(C(C)=O)C(c3cccc(F)c3)C2)cc1` (configuration not stated), the inhibition result in the experiment on Botrytis cinerea and in the experiment on Rhizoctonia solani was “inactive” throughout. The inhibition in vivo at 200 µg/mL (in the experiment with Podosphaera fuliginea [1]; in experiment [2]) was < 60% each time.
As for `CO/C=C(/C(=O)OC)c1ccccc1COc1ccc(C2=NN(C(C)=O)C(c3cc(OC)c(OC)c(OC)c3)C2)cc1` (configuration not stated), the inhibition entry in the experiment on Botrytis cinerea and in the experiment with Rhizoctonia solani was “inactive” throughout. Besides, the inhibition in vivo at 200 µg/mL (in the experiment with Podosphaera fuliginea [1]; in [2]) was < 60% in each case.
For the compound `CO/C=C(/C(=O)OC)c1ccccc1COc1ccc(C2=NN(C(C)=O)C(c3ccc(Br)cc3)C2)cc1` (configuration not stated), the inhibition entry with Botrytis cinerea and in the experiment with Rhizoctonia solani was “inactive” each time. Moreover, the inhibition in vivo at 200 µg/mL (with Podosphaera fuliginea [1]; in experiment [2]) was < 60% each time.
Take `CO/C=C(/C(=O)OC)c1ccccc1COc1ccc(C2=NN(C(C)=O)C(c3cccs3)C2)cc1` (configuration not stated): the inhibition result with Botrytis cinerea and in the experiment on Rhizoctonia solani was “inactive” throughout. Further, the results for the inhibition in vivo at 200 µg/mL (with Podosphaera fuliginea [1]; in experiment [2]) were ≥ 60% and ≥ 70%, respectively.
As for `CO/C=C(/C(=O)OC)c1ccccc1COc1cccc(C2=NN(C(C)=O)C(c3ccccc3F)C2)c1` (configuration not stated), the inhibition result in the experiment with Botrytis cinerea and with Rhizoctonia solani was “inactive” in each case. Also, the figures for the inhibition in vivo at 200 µg/mL (with Podosphaera fuliginea [1]; in experiment [2]) were < 60% and ≥ 90%, respectively.
For the compound `CO/C=C(/C(=O)OC)c1ccccc1COc1ccc(C2=NN(C(C)=O)C(c3ccc(C)c(C)c3)C2)cc1` (configuration not stated), the inhibition result in the experiment with Botrytis cinerea and in the experiment with Rhizoctonia solani was “inactive” throughout. The inhibition in vivo at 200 µg/mL (in the experiment on Podosphaera fuliginea [1]; in [2]) was < 60% throughout.
As to `CO/C=C(/C(=O)OC)c1ccccc1COc1ccccc1C1=NN(C(C)=O)C(c2ccc(OC)c(OC)c2)C1` (configuration not stated), the inhibition entry in the experiment on Botrytis cinerea and with Rhizoctonia solani was “inactive” throughout. Moreover, the inhibition in vivo at 200 µg/mL (with Podosphaera fuliginea [1]; in experiment [2]) was < 60% throughout.
`CO/C=C(/C(=O)OC)c1ccccc1COc1cccc(C2=NN(C(C)=O)C(c3cc(OC)c(OC)c(OC)c3)C2)c1` (configuration not stated): the inhibition entry with Botrytis cinerea and in the experiment on Rhizoctonia solani was “inactive” in each case. The inhibition in vivo at 200 µg/mL (with Podosphaera fuliginea [1]; in [2]) was < 60% in each case.
Take `CO/C=C(/C(=O)OC)c1ccccc1COc1ccccc1C1=NN(C(C)=O)C(c2ccc(Cl)cc2)C1` (configuration not stated): the inhibition result with Botrytis cinerea and in the experiment on Rhizoctonia solani was “inactive” throughout. The inhibition in vivo at 200 µg/mL (in the experiment on Podosphaera fuliginea [1]; in [2]) was < 60% each time.
For the compound `CO/C=C(/C(=O)OC)c1ccccc1COc1cccc(C2=NN(C(C)=O)C(c3cccs3)C2)c1` (configuration not stated), the inhibition entry in the experiment with Botrytis cinerea and with Rhizoctonia solani was “inactive” each time. For the same compound, the inhibition in vivo at 200 µg/mL with Podosphaera fuliginea [1] is < 60%; in experiment [2], 100%.

(Values after ChEMBL document CHEMBL3046363, “Synthesis, fungicidal, and insecticidal activities of beta-Methoxyacrylate-containing N-acetyl pyrazoline derivatives” (J Agric Food Chem, 2008).)
